Literature values in US20080021016A1, “Combined Pharmaceutical Composition for the Inhibition of the Decline of Cognitive Functions” (priority 2004, published 2008).

Experiments:
[1] = 1 and 10 mg/kg after oral administration
[2] = molecular target: T1, central 5-HT2C receptors (Homo sapiens, UniProt P28335)
T1 sequence (P28335 33-458): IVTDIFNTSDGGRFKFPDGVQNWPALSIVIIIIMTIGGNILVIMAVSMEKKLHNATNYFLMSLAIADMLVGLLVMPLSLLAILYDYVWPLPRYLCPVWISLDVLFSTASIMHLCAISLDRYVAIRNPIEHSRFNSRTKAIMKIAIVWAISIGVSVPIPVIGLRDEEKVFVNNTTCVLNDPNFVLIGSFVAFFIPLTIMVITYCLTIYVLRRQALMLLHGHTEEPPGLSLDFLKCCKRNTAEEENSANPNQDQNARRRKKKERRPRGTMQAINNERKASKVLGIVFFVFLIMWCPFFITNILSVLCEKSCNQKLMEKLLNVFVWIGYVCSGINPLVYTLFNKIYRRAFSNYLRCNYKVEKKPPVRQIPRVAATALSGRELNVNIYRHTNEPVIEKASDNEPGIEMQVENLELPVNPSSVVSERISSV

[3] = molecular target: central 5-HT2A receptors (Homo sapiens, UniProt P28223)
[4] = single oral dose of 3 mg/kg sc.
[5] = single 0.7 mg/kg oral treatment
[6] = 10 and 30 mg/kg after oral treatment

central 5-HT2A receptors, sequence (P28223 whole entry): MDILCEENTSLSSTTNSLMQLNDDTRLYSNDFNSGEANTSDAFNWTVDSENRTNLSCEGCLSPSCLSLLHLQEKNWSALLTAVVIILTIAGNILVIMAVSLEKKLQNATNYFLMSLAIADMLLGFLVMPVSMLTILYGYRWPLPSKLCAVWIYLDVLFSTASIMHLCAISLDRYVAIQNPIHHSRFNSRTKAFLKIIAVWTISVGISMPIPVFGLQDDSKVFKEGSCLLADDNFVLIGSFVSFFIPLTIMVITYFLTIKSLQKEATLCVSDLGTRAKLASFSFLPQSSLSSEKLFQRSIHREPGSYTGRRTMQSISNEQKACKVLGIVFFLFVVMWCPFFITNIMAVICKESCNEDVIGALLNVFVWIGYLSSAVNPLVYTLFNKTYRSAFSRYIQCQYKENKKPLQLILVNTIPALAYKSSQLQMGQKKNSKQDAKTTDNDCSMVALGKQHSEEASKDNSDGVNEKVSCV

(1R,2S,4R)-(-)-2-[N,N-(dimethylaminoethoxy)]-2-phenyl-1,7,7-trimethylbicyclo[2.2.1]heptane [deramciclane]
activity in the Vogel punished drinking test [1]: active | binding to central 5-HT2C receptors [2]: significantly bound | binding to central 5-HT2A receptors [3]: significantly bound | activity in the light-dark model [4]: active | time spent with social interactions [5]: increased the time spent with social interactions | activity in the marble burying model [6]: active
